Data as given in patent publication US9586986B2, “Substituted 7-deazapurine ribonucleosides for therapeutic uses” (Institute of Organic Chemistry and Biochemistry ASCR, v.v.i., priority 2014, dated 2017).
pIC50: −log10 of the molar value.

Columns and labels:
K562-TAX = test: Cytostatic/cytotoxic MTT assay, K562-TAX; type: cell-based; conditions: Homo sapiens, paclitaxel resistant subline, 72 h, read-out: MTT, IC50 K562-TAX
From the text: (§1) Unless otherwise stated, all cells were purchased from the […] (ATCC). The CCRF-CEM line is derived from T lymphoblastic leukemia, evincing high chemosenzitivity, K562 represent cells from a […] patient sample with bcr-abl translocation, HCT116 is colorectal tumor cell line and its p53 gene knock-down counterpart (HCT116p53−/−, Horizon Discovery, UK) is a model of human cancers with p53 inactivation frequently associated with poor prognosis, A549 cell line is lung adenocarcinoma. The daunorubicin resistant subline of CCRF-CEM cells (CEM-DNR bulk) and paclitaxel resistant subline K562-TAX were selected in our laboratory by cultivation of maternal cell lines in increasing concentrations of daunorubicine or paclitaxel, respectively. The CEM-DNR cells overexpress mrp-1 and mdr-1 genes, while K562-TAX cells overexpress mdr-1 only. Both proteins belong to the family of ABC transporters and are involved in the primary and/or acquired multidrug resistance phenomenon (ref.: Gottesman, M. M.; Fojo, T.; Bates, S. E. Multidrug resistance in cancer: role of ATP-dependent transporters. Nat. Rev. Cancer. 2002, 2, 48-58. (b) Noskova, V.; Dzubak, P.; Kuzmina, G.; Ludkova, A.; Stehlik, D.; Trojanec, R.; Janostakova, A.; Korinkova, G.; Mihal, V.; Hajduch, M. In vitro chemoresistance profile and expression/function of MDR associated proteins in resistant cell lines derived from CCRF-CEM, K562, A549 and MDA MB 231 parental cells. Neoplasma 2002, 49, 418-425). Non-malignant MRC-5 and BJ cells, derived from normal human fibroblasts, were used as controls. The cells were maintained in Nunc/Corning 80 cm^2 plastic tissue culture flasks and cultured in cell culture medium (DMEM/RPMI 1640 with 5 g/L glucose, 2 mM glutamine, 100 U/mL penicillin, 100 µg/mL streptomycin, 10% fetal calf serum, and NaHCO3). Cell suspensions were prepared and diluted according to the particular cell type and the expected target cell density (25,000-30,000 cells/well based on cell growth characteristics). Cells were added by pipette (80 L) into 96-well microtiter plates. Inoculates were allowed a pre-incubation period of 24 h at 37° C. and 5% CO2 for stabilization. Four-fold dilutions, in 20-L aliquots, of the intended test concentration were added to the microtiter plate walls at time zero. All test compound concentrations were examined in duplicate. Incubation of the cells with the test compounds lasted for 72 h at 37° C., in a 5% CO2 atmosphere at 100% humidity. At the end of the incubation period, the cells were assayed using MTT. Aliquots (10 L) of the MTT stock solution (5 mg/ml) were pipetted into each well and incubated for another 1-4 h. After this incubation period the formazan produced was dissolved by addition of 100 µL/well of 10% aq SDS (pH 5.5), followed by a further incubation at 37° C. overnight. The optical density was measured at 540 nm. The IC50 value, the drug concentration inhibiting the cell growth by 50%, was calculated from appropriate dose-response curves.
(§2) In vitro cytotoxic/cytostatic activity final nucleosides 1-5 was initially evaluated against […] cell lines derived from human solid tumors including lung (A549 cells) and colon (HCT116 and HCT116p53−/−) carcinomas, as well as leukemia cell lines (CCRF-CEM, CEM-DNR, K562 and K562-TAX) and, for comparison, non-malignant BJ and MRC-5 fibroblasts. Concentrations inhibiting the cell growth by 50% (IC50) were determined using a quantitative metabolic staining with 3-(4,5-dimethylthiazol-2-yl)-2,5-diphenyltetrazolium bromide (MTT) (ref.: Denizot, F.; Lang, R. Rapid colorimetric assay for cell growth and survival: Modifications to the tetrazolium dye procedure giving improved sensitivity and reliability. J. Immunol. Meth. 1986, 89, 271-277) following a 3-day treatment.
(§3) Multidrug resistance is a major therapeutic problem in cancer chemotherapy. […]

HeLa S3 = test: XTT cytotoxicity assay, HeLa S3; type: cell-based; conditions: Homo sapiens, HeLa S3; 72 h incubation; read-out: XTT, IC50 HeLa S3
Description: (§4) HL-60, Hela S3 and HepG2 cell lines (ATCC) were grown in RPMI-1640 or DMEM medium supplemented with 10% fetal calf serum, […] of streptomycin, 200 U/mL of penicillin G and 4 mM glutamine in a humidified atmosphere containing 5% CO2 at 37° C. Sensitivity of these cell lines to the synthesized compounds was assessed with the use of XTT cell proliferation kit II (Roche Diagnostics GmbH, Mannheim, Germany) according to the manufacturer's instructions. Briefly, cells were seeded in a 96-well plate at a density of 10,000 cells per well (90 μL). After 24 h, 10 μL of the tested compounds were added to the culture media at desired concentration range and incubated for 72 h. After that 50 μL of the XTT solution was added (1 mg/mL XTT+0.383 mg/mL N-methyl dibenzopyrazine methyl sulfate). The absorbance was recorded at 495 nm following a 2 h-incubation with the dye. IC50 values were determined by non-linear regression method using GraphPad Prism version 5.00 for Windows (GraphPad Software, La Jolla, Calif., USA).
(§5) In addition, the anti-proliferative effect was tested against a human T-lymphoblastic leukemia line CCRF-CEM, promyelocytic leukemia HL-60 and cervical carcinoma HeLa S3 growing in liquid suspension. Cell viability was determined following a 3-day incubation using 2,3-bis-(2-methoxy-4-nitro-5-sulfophenyl)-2H-tetrazolium-5-carboxanilide (XTT) assay (ref.: Scudiero, D. A.; Shoemaker, R. H.; Paull, K. D.; Monks, A.; Tierney, S.; Nofziger, T. H.; Currens, M. J.; Seniff, D.; Boyd M. R. Evaluation of a Soluble Tetrazolium/Formazan Assay for Cell Growth and Drug Sensitivity in Culture Using Human and Other Tumor Cell Lines. Cancer Res. 1988, 48, 4827-4833).

MRC-5 = test: Cytostatic/cytotoxic MTT assay, MRC-5 fibroblasts; type: cell-based; conditions: Homo sapiens, MRC5; non-malignant fibroblasts, 72 h; read-out: MTT, IC50 MRC-5
From the text: as §1, §2

HCT116p53-/- = test: Cytostatic/cytotoxic MTT assay, HCT116p53-/-; type: cell-based; conditions: Homo sapiens, HCT-116; 72 h incubation; read-out: MTT, IC50 HCT116 p53-/-
From the text: as §1, §2, §3

CCRF-CEM = test: Cytostatic/cytotoxic MTT assay, CCRF-CEM; type: cell-based; conditions: Homo sapiens, 72 h incubation, read-out: MTT, IC50 CCRF-CEM
From the text: as §1, §2

K562 = test: Cytostatic/cytotoxic MTT assay, K562; type: cell-based; conditions: Homo sapiens, K562; 72 h incubation; read-out: MTT, IC50 K562
From the text: as §1, §2

A549 = test: Cytostatic/cytotoxic MTT assay, A549; type: cell-based; conditions: Homo sapiens, A549; 72 h incubation; read-out: MTT, IC50 A549
From the text: as §1, §2

HL60 = test: XTT cytotoxicity assay, HL-60; type: cell-based; conditions: Homo sapiens, HL-60; 72 h incubation; read-out: XTT, IC50 HL60
Description: as §4, §5

BJ = test: Cytostatic/cytotoxic MTT assay, BJ fibroblasts; type: cell-based; conditions: Homo sapiens, non-malignant fibroblasts, 72 h, read-out: MTT, IC50 BJ
From the text: as §1, §2

CEM-DNR-bulk = test: Cytostatic/cytotoxic MTT assay, CEM-DNR-bulk; type: cell-based; conditions: Homo sapiens; daunorubicin resistant subline, 72 h; read-out: MTT, IC50 CEM-DNR-bulk
From the text: as §1, §2, §3

HCT116 = test: Cytostatic/cytotoxic MTT assay, HCT116; type: cell-based; conditions: Homo sapiens, HCT-116; 72 h incubation; read-out: MTT, IC50 HCT116
From the text: as §1, §2, §3

HepG2 = test: XTT cytotoxicity assay, HepG2; type: cell-based; conditions: Homo sapiens, HepG2; 72 h incubation; read-out: XTT, IC50 HepG2
Description: as §4

melting point [°C]	SMILES	pIC50 (K562-TAX)	pIC50 (HeLa S3)	pIC50 (MRC-5)	pIC50 (HCT116p53-/-)	pIC50 (CCRF-CEM)	pIC50 (K562)	pIC50 (A549)	pIC50 (HL60)	pIC50 (BJ)	pIC50 (CEM-DNR-bulk)	pIC50 (HCT116)	pIC50 (HepG2)
	CNc1ncnc2c1c(I)cn2[C@@H]1O[C@H](CO)[C@@H](O)[C@H]1O [Compound 3h, 5-Iodo-4-methylamino-7-(β-D-ribofuranosyl)-7H-pyrrolo[2,3-d]pyrimidine]	< 4.70	< 4.70	< 4.00	< 4.00	< 4.00	< 4.00	< 4.00	< 4.70	< 4.00	< 4.70	< 4.00	< 4.70
	Cc1ncnc2c1c(I)cn2[C@@H]1O[C@H](CO)[C@@H](O)[C@H]1O [Compound 5h, 5-Iodo-4-methyl-7-(β-D-ribofuranosyl)-7H-pyrrolo[2,3-d]pyrimidine]	< 4.70	5.39	4.88	5.12	5.26	4.75	4.91	5.58	< 4.00	4.90	5.33	5.46
188 to 189	Cc1ncnc2c1c(Br)cn2[C@@H]1O[C@H](CO)[C@@H](O)[C@H]1O [Compound 5i, 5-Bromo-4-methyl-7-(β-D-ribofuranosyl)-7H-pyrrolo[2,3-d]pyrimidine]	4.80	4.86	4.61	4.71	4.82	< 4.70	< 4.70	5.14	< 4.00	< 4.70	4.80	5.26
